Consider 18 compounds from US8716303B2, “N-(hetero)aryl-pyrrolidine derivatives of pyrazol-4-yl-pyrrolo[2,3-d]pyrimidines and pyrrol-3-yl-pyrrolo[2,3-d]pyrimidines as janus kinase inhibitors” (Incyte Corporation, priority 2009, dated 2014).

pIC50: −log10 of the molar value. Where a name gives a salt, the structure may show the parent alone.

The pIC50 is −log10 of the IC50, conventionally taken in molar units. Read a high pIC50 as a low IC50.

Assay [1] addresses T1, human JAK1 (a.a. 837-1142) (Homo sapiens, UniProt P23458).
T1 construct: human JAK1 (a.a. 837-1142); His tag (N); made in house; host or cells: insect cells (baculovirus)
In words: In vitro JAK kinase assay (HTRF, phosphorylation of a biotinylated peptide), JAK1. The note with it: Assay Conditions 1 mM ATP. Format: biochemical. In short, it runs like this: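 IC50s come from HTRF detection (Eu-Py20, SA-APC, 40 min binding) after 1 h RT reactions with 500 nM biotinylated peptide in Tris pH 7.8 buffer. ATP either 1 mM or Km-level, 90 μM for JAK1 and 30 μM for JAK2; enzymes are baculovirus-expressed His-tagged catalytic domains (JAK1 837-1142, JAK2 828-1132).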
Background: Time-resolved FRET reads energy transfer from a long-lived donor to a nearby acceptor.

For assay [2], the target named is T2, Jak2 (a.a. 828-1132) (Homo sapiens, UniProt O60674).
T2 construct: Jak2 (a.a. 828-1132); His tag (N); made in house; host or cells: insect cells (baculovirus)
T2 sequence (O60674 828-1132): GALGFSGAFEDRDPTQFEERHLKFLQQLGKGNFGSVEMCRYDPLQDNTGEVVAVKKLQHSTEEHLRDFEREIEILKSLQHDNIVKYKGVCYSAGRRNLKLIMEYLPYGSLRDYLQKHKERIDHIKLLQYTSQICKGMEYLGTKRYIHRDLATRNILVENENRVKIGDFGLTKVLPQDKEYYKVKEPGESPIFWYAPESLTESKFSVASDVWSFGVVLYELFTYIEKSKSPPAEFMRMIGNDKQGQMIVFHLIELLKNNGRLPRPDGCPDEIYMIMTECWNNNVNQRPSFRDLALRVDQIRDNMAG
Kind of assay: In vitro JAK kinase assay (HTRF, phosphorylation of a biotinylated peptide), JAK2, reported as JAK2/JAK1 ratio. The format is biochemical. The note with it: Assay Conditions 1 mM ATP.

T1 sequence (P23458 849-1154): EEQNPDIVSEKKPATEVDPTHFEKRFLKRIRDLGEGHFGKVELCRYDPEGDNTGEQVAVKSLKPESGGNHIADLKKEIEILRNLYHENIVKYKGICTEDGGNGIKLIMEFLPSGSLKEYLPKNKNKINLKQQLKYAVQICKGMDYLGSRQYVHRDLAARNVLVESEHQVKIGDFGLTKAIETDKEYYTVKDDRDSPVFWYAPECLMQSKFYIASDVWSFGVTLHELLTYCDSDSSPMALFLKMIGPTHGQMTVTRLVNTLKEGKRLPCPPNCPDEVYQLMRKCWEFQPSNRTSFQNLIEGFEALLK

In turn, `N#Cc1ncsc1N1CC[C@H](C(CF)n2cc(-c3ncnc4[nH]ccc34)cn2)C1` (stereo partly drawn) [Example 126, 5-((3S)-3-{2-fluoro-1-[4-(7H-pyrrolo[2,3-d]pyrimidin-4-yl)-1H-pyrazol-1-yl]ethyl}pyrrolidin-1-yl)-1,3-thiazole-4-carbonitrile trifluoroacetate] had a pIC50 in assay [1] of more than 7.30. The “JAK2/JAK1 IC50 ratio” value in assay [2] was determined as 5.9.
Turning to `CSc1ccnc(N2CC[C@H]([C@H](CC#N)n3cc(-c4ncnc5[nH]ccc45)cn3)C2)c1C#N` [Example 127, 2-((3S)-3-{(1S)-2-cyano-1-[4-(7H-pyrrolo[2,3-d]pyrimidin-4-yl)-1H-pyrazol-1-yl]ethyl}pyrrolidin-1-yl)-4-(methylthio)nicotinonitrile trifluoroacetate], the pIC50 in assay [1] is more than 7.30. In addition, in assay [2], the “JAK2/JAK1 IC50 ratio” value came out at 11.0.
As to `CS(=O)(=O)c1ccnc(N2CC[C@H]([C@H](CC#N)n3cc(-c4ncnc5[nH]ccc45)cn3)C2)c1C#N` [Example 128, 2-((3S)-3-{(1S)-2-cyano-1-[4-(7H-pyrrolo[2,3-d]pyrimidin-4-yl)-1H-pyrazol-1-yl]ethyl}pyrrolidin-1-yl)-4-(methylsulfonyl)nicotinonitrile], in assay [1], the pIC50 was more than 7.30. In addition, the “JAK2/JAK1 IC50 ratio” value in assay [2] is recorded as 4.7.
On the same counts, the results for `CSc1nc(N2CC[C@H]([C@H](CC#N)n3cc(-c4ncnc5[nH]ccc45)cn3)C2)c(F)cc1F` [Example 129, (3S)-3-{(3S)-1-[3,5-Difluoro-6-(methylthio)pyridin-2-yl]pyrrolidin-3-yl}-3-[4-(7H-pyrrolo[2,3-d]pyrimidin-4-yl)-1H-pyrazol-1-yl]propanenitrile] are more than 7.30 and 5.9.
The compound `CS(=O)(=O)c1nc(N2CC[C@H]([C@H](CC#N)n3cc(-c4ncnc5[nH]ccc45)cn3)C2)c(F)cc1F` [Example 130, (3S)-3-{(3S)-1-[3,5-difluoro-6-(methylsulfonyl)pyridin-2-yl]pyrrolidin-3-yl}-3-[4-(7H-pyrrolo[2,3-d]pyrimidin-4-yl)-1H-pyrazol-1-yl]propanenitrile trifluoroacetate] showed a negative-log IC50 (pIC50) in assay [1] of more than 7.30. For the same compound, the “JAK2/JAK1 IC50 ratio” value in assay [2] was found to be 14.8.
In assay [1], `N#CC[C@@H]([C@H]1CCN(c2nc(S(=O)(=O)CC(F)(F)F)c(F)cc2F)C1)n1cc(-c2ncnc3[nH]ccc23)cn1` [Example 131, (3S)-3-((3S)-1-{3,5-difluoro-6-[(2,2,2-trifluoroethyl)-sulfonyl]pyridin-2-yl}pyrrolidin-3-yl)-3-[4-(7H-pyrrolo[2,3-d]pyrimidin-4-yl)-1H-pyrazol-1-yl]propanenitrile trifluoroacetate] gave a pIC50 of more than 7.30. Moreover, the “JAK2/JAK1 IC50 ratio” value in assay [2] is 8.1.
In assay [1], `CS(=O)(=O)c1nc(N2CC[C@H](C(CF)n3cc(-c4ncnc5[nH]ccc45)cn3)C2)c(F)cc1F` (stereo partly drawn) [Example 132, 4-[1-(1-{(3S)-1-[3,5-difluoro-6-(methylsulfonyl)pyridin-2-yl]pyrrolidin-3-yl}-2-fluoroethyl)-1H-pyrazol-4-yl]-7H-pyrrolo [2,3-d]pyrimidine trifluoroacetate] gave a pIC50 of more than 7.30. Further, the “JAK2/JAK1 IC50 ratio” value in assay [2] turned out to be 8.9.
For the compound `CS(=O)(=O)c1ccc(F)c(N2CC[C@H]([C@H](CC#N)n3cc(-c4ncnc5[nH]ccc45)cn3)C2)n1` [Example 133, (3S)-3-{(3S)-1-[3-fluoro-6-(methylsulfonyl)pyridin-2-yl]pyrrolidin-3-yl}-3-[4-(7H-pyrrolo [2,3-d]pyrimidin-4-yl)-1H-pyrazol-1-yl] propanenitrile trifluoroacetate], the pIC50 in assay [1] is 7.00 to 7.30. The “JAK2/JAK1 IC50 ratio” value in assay [2] is recorded as 3.
As for `CS(=O)(=O)c1nc(F)c(N2CC[C@H]([C@H](CC#N)n3cc(-c4ncnc5[nH]ccc45)cn3)C2)cc1F` [Example 134, (3S)-3-{(3S)-1-[2,5-difluoro-6-(methylsulfonyl)pyridin-3-yl]pyrrolidin-3-yl}-3-[4-(7H-pyrrolo[2,3-d]pyrimidin-4-yl)-1H-pyrazol-1-yl]propanenitrile trifluoroacetate], in assay [1], the pIC50 is more than 7.30. The “JAK2/JAK1 IC50 ratio” value in assay [2] came to 17.
`CC(F)c1ccnc(N2CC[C@H]([C@H](CC#N)n3cc(-c4ncnc5[nH]ccc45)cn3)C2)c1C#N` (stereo partly drawn) [Example 136, 2-((3S)-3-{(1S)-2-cyano-1-[4-(7H-pyrrolo[2,3-d]pyrimidin-4-yl)-1H-pyrazol-1-yl]ethyl}pyrrolidin-1-yl)-4-(1-fluoroethyl)nicotinonitrile trifluoroacetate]: in assay [1], the negative-log IC50 (pIC50) was more than 7.30. Also, the “JAK2/JAK1 IC50 ratio” value in assay [2] is given as more than 5.
For `N#CC[C@@H]([C@H]1CCN(c2ncc(C(F)F)nc2C#N)C1)n1cc(-c2ncnc3[nH]ccc23)cn1` [Example 138, 3-((3S)-3-{(1S)-2-cyano-1-[4-(7H-pyrrolo[2,3-d]pyrimidin-4-yl)-1H-pyrazol-1-yl]ethyl}pyrrolidin-1-yl)-6-(difluoromethyl)pyrazine-2-carbonitrile trifluoroacetate], in that order: more than 7.30 and 17.5.
The compound `N#CC[C@@H]([C@H]1CCN(c2ncc(CO)nc2C#N)C1)n1cc(-c2ncnc3[nH]ccc23)cn1` [Example 140, 3-((3S)-3-{(1S)-2-cyano-1-[4-(7H-pyrrolo[2,3-d]pyrimidin-4-yl)-1H-pyrazol-1-yl]ethyl}pyrrolidin-1-yl)-6-(hydroxymethyl)pyrazine-2-carbonitrile trifluoroacetate] gave a pIC50 in assay [1] of more than 7.30. For the same compound, in assay [2], the “JAK2/JAK1 IC50 ratio” value was 17.4.
As for `COCc1cnc(N2CC[C@H]([C@H](CC#N)n3cc(-c4ncnc5[nH]ccc45)cn3)C2)c(C#N)n1` [Example 141, 3-((3S)-3-{(1S)-2-cyano-1-[4-(7H-pyrrolo[2,3-d]pyrimidin-4-yl)-1H-pyrazol-1-yl]ethyl}pyrrolidin-1-yl)-6-(methoxymethyl)pyrazine-2-carbonitrile trifluoroacetate], the pIC50 in assay [1] was more than 7.30. For the same compound, in assay [2], the “JAK2/JAK1 IC50 ratio” value turned out to be 16.2.
As for `N#CC[C@@H]([C@H]1CCN(c2ncc(Br)nc2C#N)C1)n1cc(-c2ncnc3[nH]ccc23)cn1` [Example 142, 6-bromo-3-(3S)-3-{(1S)-2-cyano-1-[4-(7H-pyrrolo[2,3-d]pyrimidin-4-yl)-1H-pyrazol-1-yl]ethyl}pyrrolidin-1-yl)pyrazine-2-carbonitrile trifluoroacetate], in assay [1], the pIC50 was more than 7.30. The “JAK2/JAK1 IC50 ratio” value in assay [2] is on record as 14.2.
For the compound `C#Cc1cnc(N2CC[C@H]([C@H](CC#N)n3cc(-c4ncnc5[nH]ccc45)cn3)C2)c(C#N)n1` [Example 143, 3-((3S)-3-{(1S)-2-cyano-1-[4-(7H-pyrrolo[2,3-d]pyrimidin-4-yl)-1H-pyrazol-1-yl]ethyl}pyrrolidin-1-yl)-6-ethynylpyrazine-2-carbonitrile trifluoroacetate], in assay [1], the pIC50 is more than 7.30. For the same compound, the “JAK2/JAK1 IC50 ratio” value in assay [2] was more than 4.5.
Take `CCc1cnc(N2CC[C@H]([C@H](CC#N)n3cc(-c4ncnc5[nH]ccc45)cn3)C2)c(C#N)n1` [Example 144, 3-((3S)-3-{(1S)-2-cyano-1-[4-(7H-pyrrolo[2,3-d]pyrimidin-4-yl)-1H-pyrazol-1-yl]ethyl}pyrrolidin-1-yl)-6-ethylpyrazine-2-carbonitrile trifluoroacetate]: the pIC50 in assay [1] is more than 7.30. The “JAK2/JAK1 IC50 ratio” value in assay [2] is more than 6.9.
`Cc1cnc(N2CC[C@H]([C@H](CC#N)n3cc(-c4ncnc5[nH]ccc45)cn3)C2)c(C#N)n1` [Example 145, 3-((3S)-3-{(1S)-2-cyano-1-[4-(7H-pyrrolo[2,3-d]pyrimidin-4-yl)-1H-pyrazol-1-yl]ethyl}pyrrolidin-1-yl)-6-methylpyrazine-2-carbonitrile trifluoroacetate] gave a pIC50 in assay [1] of more than 7.30. Also, the “JAK2/JAK1 IC50 ratio” value in assay [2] is listed as more than 11.1.
In turn, `CC(O)c1cnc(N2CC[C@H]([C@H](CC#N)n3cc(-c4ncnc5[nH]ccc45)cn3)C2)c(C#N)n1` (stereo partly drawn) [Example 146, 3-((3S)-3-{(1S)-2-cyano-1-[4-(7H-pyrrolo[2,3-d]pyrimidin-4-yl)-1H-pyrazol-1-yl]ethyl}pyrrolidin-1-yl)-6-(1-hydroxyethyl)pyrazine-2-carbonitrile trifluoroacetate] had a pIC50 in assay [1] of more than 7.30. The “JAK2/JAK1 IC50 ratio” value in assay [2] is reported as more than 4.8.
